Data set [1] has as its target T1, ROCK1 (Arabidopsis thaliana, UniProt Q8LES0).
T1 construct: FLAG (N); made in house; host or cells: Saccharomyces cerevisiae BY4741 (microsomal vesicles)
T1 sequence (Q8LES0 1-325): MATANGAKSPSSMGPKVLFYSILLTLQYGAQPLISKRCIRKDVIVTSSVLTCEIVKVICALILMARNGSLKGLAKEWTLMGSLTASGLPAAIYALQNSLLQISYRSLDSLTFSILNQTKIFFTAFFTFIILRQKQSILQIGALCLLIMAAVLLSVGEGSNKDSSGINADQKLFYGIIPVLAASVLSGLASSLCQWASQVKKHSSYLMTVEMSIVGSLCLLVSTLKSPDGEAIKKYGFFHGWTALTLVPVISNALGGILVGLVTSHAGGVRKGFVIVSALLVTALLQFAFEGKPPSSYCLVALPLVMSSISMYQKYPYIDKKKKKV
Nature of the data set: Nucleotide-sugar transport assay: uptake of radiolabeled nucleotide sugars into yeast microsomes expressing FLAG-ROCK1. It is filed as biochemical. The conditions noted are these: ER/Golgi microsomal vesicles from S. cerevisiae expressing FLAG-ROCK1 vs empty vector control.
Protocol: (B) Measurement of ROCK1-mediated uptake of radiolabeled nucleotide sugars into yeast microsomes expressing FLAG-ROCK1 or empty vector. Means±SEM (n=3; *, P<0.05, t test).
Nucleotide-sugar transport into Saccharomyces cerevisiae (BY4741) transformed with the construct pYEScupFLAGK-ROCK1 or the empty vector control was measured as described by Ashikov et al. (2005): “cultured cells were harvested by centrifugation (5 min at 1,500×g) and washed twice with ice-cold 10 mm NaN3. The weight of wet cells was measured, and cells were resuspended in zymolyase buffer (3 ml/g of cells; 50 mm potassium phosphate, pH 7.5; 1.4 m sorbitol; 10 mm NaN3 and 0.3% β-mercaptoethanol) containing 0.6 mg/ml of zymolyase-100T. The suspension was incubated for 20 min at 30° C. Spheroplasts were collected by centrifugation (5 min at 1,000×g) and resuspended in lysis buffer (4 ml/g of cells; 10 mm Hepes-Tris, pH 7.4; 0.8 m sorbitol; 1 mm EDTA) containing complete EDTA-free protease inhibitor mixture (Roche Applied Science). After homogenization with 10 strokes in a Dounce homogenizer, the lysate was centrifuged (5 min, 1,500×g) to remove unlysed cells and debris. Endoplasmic reticulum- and Golgi-rich fractions were then obtained by centrifugation at 10,000×g for 10 min (endoplasmic reticulum) and 100,000×g for 1 h (Golgi). The 100,000×g pellet was carefully resuspended in lysis buffer (0.8 ml/g of cells), and aliquots of 100 μl were snap-frozen and kept at −80° C. Protein concentrations were determined using the BCA™ kit (Pierce). For transport assay reactions, equal volumes (50 μl of each) of 2 mm radioactive nucleotide sugar (2,000-4,000 dpm/pmol) in assay buffer (10 mm Tris-HCl, pH 7.0; 0.8 m sorbitol; 2 mm MgCl2) and vesicle preparation (equivalent to 75-100 μg of protein) were incubated for 30 s at 30° C. Reactions were stopped by dilution with 1 ml of assay buffer containing 1 μm respective cold nucleotide sugar. The separation of vesicles and nucleotide sugars was achieved by filtration trough nitrocellulose filter (MF™ membrane filters Millipore, Bedford, Mass.). Filters were washed three times with 2 ml of ice-cold assay buffer containing the corresponding cold nucleotide sugar at a concentration of 1 μm, and radioactivity associated with the vesicular fraction was measured by liquid scintillation in a LS 5000CE counter (Beckman Coulter). Golgi vesicles from yeast cells transformed with an empty vector were used to measure endogenous transport.”
To directly test the transport specificity of ROCK1, a FLAG-tagged ROCK1 protein was expressed in Saccharomyces cerevisiae, which has, with the exception of GDP-Man, a low background for most nucleotide sugar transport activities and is commonly used as a heterologous test system for NSTs. […]

The test system of data set [2] is myc-CKX1. Nature of the data set: myc-CKX1 level in seedlings after proteasome inhibitor treatment (immunoblotting and densitometry). It is filed as in vivo, Arabidopsis thaliana. The conditions noted are these: seedlings treated with 100 μM MG132. The method, then: FIG. 4. ROCK1 regulates ERQC and CKX protein stability. (A) N-glycosylation status of myc-CKX1 protein in wild-type and rock1 seedlings. Protein extracts were treated with PNGase F or EndoH and the size of myc-CKX1 was compared to mock-treated control by SDS-PAGE and immunoblot with anti-myc antibody. (B) The loss of GnT-I activity in cgl1 mutants has no influence on the shoot phenotype of 35S:CKX1 plants (21 dag). (C) The level of myc-CKX1 is decreased in rock1 compared to wild type. Total protein extracts were analyzed by immunoblot with anti-myc antibody. Coomassie blue staining of Rubisco large subunit (RbcL) was used as loading control. Relative densitometric analysis of the myc-CKX1 signal is shown. […] Protein extracts were prepared from 7-d-old seedlings treated with mock or 100 μM CHX for indicated times and analyzed by immunoblotting. […] Seedlings were treated with 100 μM MG132 and myc-CKX1 analyzed by immunoblotting and densitometry. […] (F) Quantitative real-time PCR analysis of UPR genes in shoots of soil-grown seedlings 9 dag measured by. […]
Proteins were extracted and the concentration determined as described for the CKX activity assay. […] Intensities were normalized to the loading control and calculated relative to wild type samples. […]
To test CKX1 turnover, we analyzed myc-CKX1 levels in the presence of the translation inhibitor cycloheximide (CHX). […]
A general note: In western blotting, separated proteins are transferred to a membrane and probed.

Data set [3] has as its system ipt3,5,7. Put plainly: Restoration of growth of ipt3,5,7 mutant plants by CKX inhibitor application. It is filed as in vivo, Arabidopsis thaliana. The conditions noted are these: shoots sprayed with 10 μM INCYDE every 3 days; compared with suppression by rock1-1. The protocol: If not otherwise denoted, Arabidopsis thaliana Columbia-0 was used as the wild type. The T-DNA insertion lines rock1-2 (SALK_001259) and rock1-3 (901C01) were used. The following lines were described previously: 35S:CKX1-11, 35S:CKX2-9, 35S:CKX3-9, 35S:CKX7-GFP-26, ahk2-5, ahk3-7, cre1-2, atipt1, atipt3-2, atipt5-2, atipt7-1, cgl1 C6 (cgl1-2) and ARR5:GUS. Plants were grown in vitro on half-strength Murashige and Skoog (MS) medium containing 10 g/L sucrose, 0.5 g/L MES and 8 g/L phytagel. For analysis of root growth, 12 g/L phytagel and cytokinin or DMSO as solvent control were added to the medium. Plants were grown under long day conditions (16 h light/8 h dark; 21/18° C.) in vitro or in the green house. Shoots of soil grown plants were sprayed with 10 μM INCYDE and 0.01% Silwet L-77 every 3 days starting 3 days after germination. The binary vector constructs were transformed into Arabidopsis plants by Agrobacterium tumefaciens (strain GV3101:pMP90) mediated floral dip method.
To gain information about the specificity of rock1 in suppressing CKX overexpression phenotypes, rock1-1 was introgressed into 35S:CKX2, 35S:CKX3 and 35S:CKX7 plants.

The values that follow come from patent publication US10508281B2, “Disruption of ROCK1 gene leads to plants with improved traits” (priority 2014, dated 2019).

Residues, ends and D or L forms follow the SMILES beside them. *: point of attachment. Cbz = O=C(OCc1ccccc1)*

Consider `CC1OC(OP(=O)(O)OP(=O)(O)OCC2OC(n3cnc4c(=O)[nH]c(N)nc43)C(O)C2O)C(O)C(O)C1O` (stereo not shown) [GDP-Fuc], for which the “relative transport in ROCK1 microsomes versus empty vector control (in words)” value in data set [1] is reported as “lowered”.
As for `Nc1nc2c(ncn2[C@@H]2O[C@H](COP(=O)(O)OP(=O)(O)O[C@H]3O[C@H](CO)[C@@H](O)[C@H](O)[C@@H]3O)[C@@H](O)[C@H]2O)c(=O)[nH]1` [GDP-Man], in data set [1], the “relative transport in ROCK1 microsomes versus empty vector control (in words)” value was “lowered”.
As for `CC(C)C[C@@H](C=O)NC(=O)[C@H](CC(C)C)NC(=O)[C@H](CC(C)C)NC(=O)OCc1ccccc1` [MG132] (Cbz-Leu-Leu-Leu-aldehyde), in data set [2] (rock1 background), the “effect on myc-CKX1 levels in rock1 background” value was “strongly stabilized myc-CKX1 levels”. Moreover, in data set [2] (wild type background), the “effect on level of myc-CKX1 in wild type” value is “increased the level of myc-CKX1”.
Consider `CC(=O)N[C@H]1[C@@H](OP(=O)(O)OP(=O)(O)OC[C@H]2O[C@@H](n3ccc(=O)[nH]c3=O)[C@H](O)[C@@H]2O)O[C@H](CO)[C@H](O)[C@@H]1O` [UDP-GalNAc, UDP-N-acetylgalactosamine], for which, in data set [1], the “uptake in vesicles expressing ROCK1, increased in comparison to the control” value is given as 7 fold.
As to `CC(=O)N[C@H]1[C@@H](OP(=O)(O)OP(=O)(O)OC[C@H]2O[C@@H](n3ccc(=O)[nH]c3=O)[C@H](O)[C@@H]2O)O[C@H](CO)[C@@H](O)[C@@H]1O` [UDP-GlcNAc, UDP-N-acetylglucosamine], the “uptake in vesicles expressing ROCK1, increased in comparison to the control” value in data set [1] was 3 fold.
Turning to `COc1cccc(Nc2nc(Cl)nc3nc[nH]c23)c1` [chemical inhibitor of CKX activity], in data set [3], the “restoration of ipt3,5,7 growth” value is listed as “comparable restoration of ipt3,5,7 growth”.
